SMILES: CN1COCNC1=N[N+](=O)[O-]
- solubility (mole fraction) (in DMF, 293.15 K): 0.0947
- solubility (mole fraction) (in DMF, 298.15 K): 0.113
- solubility (mole fraction) (in DMF, 303.15 K): 0.12
- solubility (mole fraction) (in DMF, 308.15 K): 0.138
- solubility (mole fraction) (in DMF, 313.15 K): 0.141
- solubility (mole fraction) (in DMF, 318.15 K): 0.165
- solubility (mole fraction) (in DMF, 323.15 K): 0.166
- solubility (mole fraction) (in DMSO, 293.15 K): 0.0794
- solubility (mole fraction) (in DMSO, 298.15 K): 0.0978
- solubility (mole fraction) (in DMSO, 303.15 K): 0.104
- solubility (mole fraction) (in DMSO, 308.15 K): 0.115
- solubility (mole fraction) (in DMSO, 313.15 K): 0.12
- solubility (mole fraction) (in DMSO, 318.15 K): 0.123
- solubility (mole fraction) (in DMSO, 323.15 K): 0.14
- solubility (mole fraction) (in acetonitrile, 293.15 K): 0.0241
- solubility (mole fraction) (in acetonitrile, 298.15 K): 0.0318
- solubility (mole fraction) (in acetonitrile, 303.15 K): 0.0336
- solubility (mole fraction) (in acetonitrile, 308.15 K): 0.0411
- solubility (mole fraction) (in acetonitrile, 313.15 K): 0.0436
- solubility (mole fraction) (in acetonitrile, 318.15 K): 0.0547
- solubility (mole fraction) (in acetonitrile, 323.15 K): 0.0563
- solubility (mole fraction) (in dichloromethane, 293.15 K): 0.0126
- solubility (mole fraction) (in dichloromethane, 298.15 K): 0.0154
- solubility (mole fraction) (in dichloromethane, 303.15 K): 0.0162
- solubility (mole fraction) (in dichloromethane, 308.15 K): 0.0233
- solubility (mole fraction) (in dichloromethane, 313.15 K): 0.0234
- solubility (mole fraction) (in dichloromethane, 318.15 K): 0.0265
- solubility (mole fraction) (in dichloromethane, 323.15 K): 0.0277
- solubility (mole fraction) (in ethanol, 293.15 K): 0.00163
- solubility (mole fraction) (in ethanol, 298.15 K): 0.00212
- solubility (mole fraction) (in ethanol, 303.15 K): 0.00241
- solubility (mole fraction) (in ethanol, 308.15 K): 0.00351
- solubility (mole fraction) (in ethanol, 313.15 K): 0.00379
- solubility (mole fraction) (in ethanol, 318.15 K): 0.00445
- solubility (mole fraction) (in ethanol, 323.15 K): 0.00507
- solubility (mole fraction) (in ethyl acetate, 293.15 K): 0.00579
- solubility (mole fraction) (in ethyl acetate, 298.15 K): 0.00614
- solubility (mole fraction) (in ethyl acetate, 303.15 K): 0.00633
- solubility (mole fraction) (in ethyl acetate, 308.15 K): 0.0074
- solubility (mole fraction) (in ethyl acetate, 313.15 K): 0.00773
- solubility (mole fraction) (in ethyl acetate, 318.15 K): 0.00866
- solubility (mole fraction) (in ethyl acetate, 323.15 K): 0.0106
- solubility (mole fraction) (in ethylene glycol, 293.15 K): 0.00157
- solubility (mole fraction) (in ethylene glycol, 298.15 K): 0.00248
- solubility (mole fraction) (in ethylene glycol, 303.15 K): 0.00289
- solubility (mole fraction) (in ethylene glycol, 308.15 K): 0.00439
- solubility (mole fraction) (in ethylene glycol, 313.15 K): 0.00447
- solubility (mole fraction) (in ethylene glycol, 318.15 K): 0.00527
- solubility (mole fraction) (in ethylene glycol, 323.15 K): 0.00893
- solubility (mole fraction) (in isopropanol, 293.15 K): 0.00101
- solubility (mole fraction) (in isopropanol, 298.15 K): 0.0013
- solubility (mole fraction) (in isopropanol, 303.15 K): 0.0013
- solubility (mole fraction) (in isopropanol, 308.15 K): 0.00175
- solubility (mole fraction) (in isopropanol, 313.15 K): 0.00242
- solubility (mole fraction) (in isopropanol, 318.15 K): 0.00285
- solubility (mole fraction) (in isopropanol, 323.15 K): 0.00303
- solubility (mole fraction) (in methanol, 293.15 K): 0.00289
- solubility (mole fraction) (in methanol, 298.15 K): 0.00422
- solubility (mole fraction) (in methanol, 303.15 K): 0.00447
- solubility (mole fraction) (in methanol, 308.15 K): 0.00532
- solubility (mole fraction) (in methanol, 313.15 K): 0.00682
- solubility (mole fraction) (in methanol, 318.15 K): 0.00759
- solubility (mole fraction) (in methanol, 323.15 K): 0.00978
- solubility (mole fraction) (in methyl acetate, 293.15 K): 0.00741
- solubility (mole fraction) (in methyl acetate, 298.15 K): 0.00839
- solubility (mole fraction) (in methyl acetate, 303.15 K): 0.00936
- solubility (mole fraction) (in methyl acetate, 308.15 K): 0.0115
- solubility (mole fraction) (in methyl acetate, 313.15 K): 0.0124
- solubility (mole fraction) (in methyl acetate, 318.15 K): 0.0133
- solubility (mole fraction) (in methyl acetate, 323.15 K): 0.0157
- solubility (mole fraction) (in n-butanol, 293.15 K): 0.00199
- solubility (mole fraction) (in n-butanol, 298.15 K): 0.00218
- solubility (mole fraction) (in n-butanol, 303.15 K): 0.00234
- solubility (mole fraction) (in n-butanol, 308.15 K): 0.00279
- solubility (mole fraction) (in n-butanol, 313.15 K): 0.00308
- solubility (mole fraction) (in n-butanol, 318.15 K): 0.00321
- solubility (mole fraction) (in n-butanol, 323.15 K): 0.00362
- solubility (mole fraction) (in n-propanol, 293.15 K): 0.00109
- solubility (mole fraction) (in n-propanol, 298.15 K): 0.00146
- solubility (mole fraction) (in n-propanol, 303.15 K): 0.00195
- solubility (mole fraction) (in n-propanol, 308.15 K): 0.00217
- solubility (mole fraction) (in n-propanol, 313.15 K): 0.00247
- solubility (mole fraction) (in n-propanol, 318.15 K): 0.00301
- solubility (mole fraction) (in n-propanol, 323.15 K): 0.00441

From BigSolDB 2.1
